Among the data in ChEMBL document CHEMBL1201862, “PubChem BioAssay data set” (2004) are EC50, IC50 and CC50 values, retold here.

Calls of active or inactive are those of the source.

The test system of assay [1] is HEK293. Nature of the assay: inhibition of NOD1-driven NF-kB reporter – cell-based, luminescence, uHTS, primary screen (AID 1578). The note with it: Homo sapiens. Format: functional.
Assay [2] has as its system HEK293. Nature of the assay: cells. Type of assay: functional, cell-based. The note with it: Homo sapiens.
The target of another assay is Ion channel NompC (Danio rerio, UniProt Q7T1G6). The assay can be described thus: Dose response cell-based high-throughput screening assay for agonists of the transient receptor potential channel N1 (TRPN1). [Related pubchem assays (depositor defined):AID1424, AID1448]. Format: functional.
Ion channel NompC, sequence (Q7T1G6 whole entry): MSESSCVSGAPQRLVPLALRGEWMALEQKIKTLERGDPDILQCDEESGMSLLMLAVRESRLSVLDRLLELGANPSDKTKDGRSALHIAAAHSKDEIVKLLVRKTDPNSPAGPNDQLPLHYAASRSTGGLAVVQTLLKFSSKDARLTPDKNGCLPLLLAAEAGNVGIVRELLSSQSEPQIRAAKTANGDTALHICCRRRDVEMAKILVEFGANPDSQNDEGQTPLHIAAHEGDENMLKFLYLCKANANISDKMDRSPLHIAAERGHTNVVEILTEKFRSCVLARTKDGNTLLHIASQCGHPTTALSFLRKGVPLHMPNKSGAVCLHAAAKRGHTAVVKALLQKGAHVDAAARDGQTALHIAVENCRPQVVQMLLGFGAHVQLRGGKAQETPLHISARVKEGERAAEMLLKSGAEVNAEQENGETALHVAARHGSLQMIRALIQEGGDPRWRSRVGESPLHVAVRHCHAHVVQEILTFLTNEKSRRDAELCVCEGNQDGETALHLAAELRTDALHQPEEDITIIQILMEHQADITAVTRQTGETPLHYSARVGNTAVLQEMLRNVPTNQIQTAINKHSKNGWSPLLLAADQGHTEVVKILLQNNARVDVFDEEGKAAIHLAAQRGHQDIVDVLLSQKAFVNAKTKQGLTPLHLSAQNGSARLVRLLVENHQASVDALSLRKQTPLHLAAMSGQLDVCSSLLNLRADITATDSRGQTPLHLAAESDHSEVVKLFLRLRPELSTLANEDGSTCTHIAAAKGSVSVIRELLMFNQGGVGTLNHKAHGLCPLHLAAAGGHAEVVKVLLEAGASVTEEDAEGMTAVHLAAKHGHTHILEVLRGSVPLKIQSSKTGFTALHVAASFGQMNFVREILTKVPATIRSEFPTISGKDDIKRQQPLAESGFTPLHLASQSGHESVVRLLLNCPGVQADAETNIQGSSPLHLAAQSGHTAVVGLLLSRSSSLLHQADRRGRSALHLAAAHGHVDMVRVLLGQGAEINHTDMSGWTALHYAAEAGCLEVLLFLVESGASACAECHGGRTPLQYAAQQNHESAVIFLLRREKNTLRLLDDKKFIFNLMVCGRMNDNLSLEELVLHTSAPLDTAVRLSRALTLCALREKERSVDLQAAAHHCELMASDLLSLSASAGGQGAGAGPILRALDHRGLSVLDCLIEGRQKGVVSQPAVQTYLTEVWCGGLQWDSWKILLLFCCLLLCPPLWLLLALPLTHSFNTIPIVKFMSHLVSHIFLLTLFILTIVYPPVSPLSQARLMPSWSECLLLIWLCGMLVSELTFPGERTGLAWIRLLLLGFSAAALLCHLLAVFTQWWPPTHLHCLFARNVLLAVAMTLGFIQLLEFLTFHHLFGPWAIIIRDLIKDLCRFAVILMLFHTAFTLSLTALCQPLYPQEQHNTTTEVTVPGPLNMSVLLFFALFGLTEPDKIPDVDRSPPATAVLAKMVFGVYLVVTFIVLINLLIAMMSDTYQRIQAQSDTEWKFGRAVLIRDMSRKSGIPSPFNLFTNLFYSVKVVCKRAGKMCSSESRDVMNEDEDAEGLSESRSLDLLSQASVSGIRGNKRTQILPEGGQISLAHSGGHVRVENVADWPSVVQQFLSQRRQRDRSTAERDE
Assay [3] concerns HEK293. The assay can be described thus: NOD2 signaling inhibitors in MDP-stimulated cells, cell-based, uHTS, luminescence (AID 2001). Format: functional. Particulars: Homo sapiens.
A further assay addresses Mucolipin-3 (Homo sapiens, UniProt Q8TDD5). The assay can be described thus: Fluorescence counterscreen assay for […] agonists: dose response cell-based high-throughput screening assay to identify agonists of the transient receptor potential channel ML3 (TRPML3). [Related pubchem assays: 1424, 1448 ]. Format: functional. (In general: Counterscreens check selectivity or assay interference.)

A short description of assay [4]: THP-1 cell cytotoxicity, dose response, cytotoxicity control for non-replicating M. tuberculosis project (AID 489025). Format: functional.
Assay [5] is described as follows: Vero E6 cell cytotoxicity, dose response, cytotoxicity control for non-replicating M. tuberculosis project, secondary assay (AID 492998). Format: functional, VeroE6. The note with it: Vero C1008.
The next assay is described as follows: cells. Format: functional.
The target in the next assay is T1, Protein skinhead-1 (Caenorhabditis elegans, UniProt P34707).
T1 sequence (P34707 whole entry): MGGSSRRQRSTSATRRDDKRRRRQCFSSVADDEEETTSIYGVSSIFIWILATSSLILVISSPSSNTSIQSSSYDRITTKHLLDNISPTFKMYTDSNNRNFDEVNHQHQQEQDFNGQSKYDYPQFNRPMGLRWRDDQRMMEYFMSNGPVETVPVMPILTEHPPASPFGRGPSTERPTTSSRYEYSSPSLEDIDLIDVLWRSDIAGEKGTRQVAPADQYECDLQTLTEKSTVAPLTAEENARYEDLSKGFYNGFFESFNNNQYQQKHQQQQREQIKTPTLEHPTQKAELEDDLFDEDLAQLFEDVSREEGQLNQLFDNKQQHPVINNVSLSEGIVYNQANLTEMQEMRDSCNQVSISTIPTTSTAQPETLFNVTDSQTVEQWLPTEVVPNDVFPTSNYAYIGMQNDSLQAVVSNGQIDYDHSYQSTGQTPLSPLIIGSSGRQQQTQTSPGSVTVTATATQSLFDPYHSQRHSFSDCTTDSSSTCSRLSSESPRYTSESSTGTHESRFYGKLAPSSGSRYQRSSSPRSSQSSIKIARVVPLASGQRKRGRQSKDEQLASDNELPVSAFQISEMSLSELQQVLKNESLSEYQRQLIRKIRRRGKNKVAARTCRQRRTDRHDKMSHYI
Type of assay: functional.

The target of assay [6] is Glyceraldehyde-3-phosphate dehydrogenase (Homo sapiens, UniProt P04406).
Glyceraldehyde-3-phosphate dehydrogenase, sequence (P04406 whole entry): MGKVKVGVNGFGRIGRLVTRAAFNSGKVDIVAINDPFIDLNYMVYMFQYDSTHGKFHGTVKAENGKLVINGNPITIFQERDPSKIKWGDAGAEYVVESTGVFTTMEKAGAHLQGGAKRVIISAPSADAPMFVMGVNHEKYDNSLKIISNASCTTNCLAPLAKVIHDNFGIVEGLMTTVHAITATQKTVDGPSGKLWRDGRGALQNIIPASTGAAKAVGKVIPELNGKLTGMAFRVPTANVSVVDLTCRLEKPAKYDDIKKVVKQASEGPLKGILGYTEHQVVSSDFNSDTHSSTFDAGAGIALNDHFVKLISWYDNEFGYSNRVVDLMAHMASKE
For assay [7], the target named is T2, Alkaline phosphatase, tissue-nonspecific isozyme (Homo sapiens, UniProt P05186).
T2 sequence (P05186 whole entry): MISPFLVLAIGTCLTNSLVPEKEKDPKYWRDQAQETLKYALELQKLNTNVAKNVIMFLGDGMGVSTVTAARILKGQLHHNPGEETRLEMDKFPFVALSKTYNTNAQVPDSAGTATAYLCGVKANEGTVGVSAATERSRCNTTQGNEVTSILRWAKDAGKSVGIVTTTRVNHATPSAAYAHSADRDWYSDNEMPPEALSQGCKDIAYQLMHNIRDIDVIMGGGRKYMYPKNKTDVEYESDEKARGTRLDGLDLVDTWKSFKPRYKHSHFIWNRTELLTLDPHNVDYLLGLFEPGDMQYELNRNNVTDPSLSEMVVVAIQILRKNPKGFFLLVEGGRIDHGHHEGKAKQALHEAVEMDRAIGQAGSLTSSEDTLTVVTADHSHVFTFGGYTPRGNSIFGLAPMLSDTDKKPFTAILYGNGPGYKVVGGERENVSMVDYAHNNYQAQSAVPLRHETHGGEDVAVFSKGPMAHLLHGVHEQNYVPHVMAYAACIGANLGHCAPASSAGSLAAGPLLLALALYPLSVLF
The assay can be described thus: potency against alkaline phosphatase TNAP – biochemical, luminescent, dose response, SAR follow-up (AID 1056).

The target in assay [8] is T3, Voltage-gated N-type calcium channel alpha-1B subunit/Amyloid beta A4 precursor protein-binding family A member 1 (Homo sapiens, UniProt Q00975+Q02410). Format: protein assay.
The target of assay [9] is T3, Voltage-gated N-type calcium channel alpha-1B subunit/Amyloid beta A4 precursor protein-binding family A member 1. Format: protein assay. This is another data set of the same source.
For the next assay, the target named is T4, Caspase-3 (Homo sapiens, UniProt P42574).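 Note: Dose-response selectivity test against caspase-3 for candidate inhibitors of sentrin-specific proteases (SENPs).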
T4 sequence (P42574 whole entry): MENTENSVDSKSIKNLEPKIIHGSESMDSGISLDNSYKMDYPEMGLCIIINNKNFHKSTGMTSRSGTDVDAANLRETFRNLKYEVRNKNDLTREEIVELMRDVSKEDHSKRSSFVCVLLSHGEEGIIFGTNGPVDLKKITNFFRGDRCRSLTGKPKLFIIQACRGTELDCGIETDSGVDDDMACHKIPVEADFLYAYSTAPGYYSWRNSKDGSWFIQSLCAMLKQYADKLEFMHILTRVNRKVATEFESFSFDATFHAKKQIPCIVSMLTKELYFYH
Type of assay: functional.

Assay [10] concerns the target T5, Sentrin-specific protease 7 (Homo sapiens, UniProt Q9BQF6).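 Note: Luminescence-based dose-response confirmation of ultra-high-throughput screening hits, measuring inhibition of SENP7.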
T5 sequence (Q9BQF6 whole entry): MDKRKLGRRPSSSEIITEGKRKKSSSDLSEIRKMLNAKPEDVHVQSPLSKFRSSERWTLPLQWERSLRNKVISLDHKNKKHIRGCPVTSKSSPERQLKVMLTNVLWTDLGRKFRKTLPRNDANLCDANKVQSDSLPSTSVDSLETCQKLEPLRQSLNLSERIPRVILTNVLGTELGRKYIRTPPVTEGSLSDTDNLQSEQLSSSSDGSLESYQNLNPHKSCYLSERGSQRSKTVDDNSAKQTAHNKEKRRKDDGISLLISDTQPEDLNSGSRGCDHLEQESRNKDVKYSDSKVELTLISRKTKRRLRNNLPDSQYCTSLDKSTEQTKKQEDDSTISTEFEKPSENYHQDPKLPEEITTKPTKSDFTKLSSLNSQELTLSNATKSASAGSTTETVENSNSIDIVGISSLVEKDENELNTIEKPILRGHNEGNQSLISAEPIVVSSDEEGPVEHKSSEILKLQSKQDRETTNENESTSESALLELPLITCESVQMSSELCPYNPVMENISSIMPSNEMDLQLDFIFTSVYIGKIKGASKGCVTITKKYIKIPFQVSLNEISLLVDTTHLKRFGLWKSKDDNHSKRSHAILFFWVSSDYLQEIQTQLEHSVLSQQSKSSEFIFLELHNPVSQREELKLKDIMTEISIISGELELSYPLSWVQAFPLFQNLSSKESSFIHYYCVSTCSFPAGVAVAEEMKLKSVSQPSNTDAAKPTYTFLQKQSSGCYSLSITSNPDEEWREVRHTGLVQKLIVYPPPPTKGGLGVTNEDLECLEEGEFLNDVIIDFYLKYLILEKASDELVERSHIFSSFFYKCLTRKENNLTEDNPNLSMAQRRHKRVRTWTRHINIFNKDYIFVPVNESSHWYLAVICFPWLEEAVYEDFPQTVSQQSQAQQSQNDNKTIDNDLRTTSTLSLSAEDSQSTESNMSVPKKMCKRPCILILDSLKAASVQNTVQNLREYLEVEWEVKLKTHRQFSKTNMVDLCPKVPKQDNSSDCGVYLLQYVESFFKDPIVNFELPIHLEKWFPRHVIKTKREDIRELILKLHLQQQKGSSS
Format: functional.

Assay [11] has as its target T6, Sentrin-specific protease 6 (Homo sapiens, UniProt Q9GZR1).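 Note: Luminescence-based dose-response confirmatory assay of SENP6 inhibition, following up an ultra-high-throughput screen.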
T6 sequence (Q9GZR1 whole entry): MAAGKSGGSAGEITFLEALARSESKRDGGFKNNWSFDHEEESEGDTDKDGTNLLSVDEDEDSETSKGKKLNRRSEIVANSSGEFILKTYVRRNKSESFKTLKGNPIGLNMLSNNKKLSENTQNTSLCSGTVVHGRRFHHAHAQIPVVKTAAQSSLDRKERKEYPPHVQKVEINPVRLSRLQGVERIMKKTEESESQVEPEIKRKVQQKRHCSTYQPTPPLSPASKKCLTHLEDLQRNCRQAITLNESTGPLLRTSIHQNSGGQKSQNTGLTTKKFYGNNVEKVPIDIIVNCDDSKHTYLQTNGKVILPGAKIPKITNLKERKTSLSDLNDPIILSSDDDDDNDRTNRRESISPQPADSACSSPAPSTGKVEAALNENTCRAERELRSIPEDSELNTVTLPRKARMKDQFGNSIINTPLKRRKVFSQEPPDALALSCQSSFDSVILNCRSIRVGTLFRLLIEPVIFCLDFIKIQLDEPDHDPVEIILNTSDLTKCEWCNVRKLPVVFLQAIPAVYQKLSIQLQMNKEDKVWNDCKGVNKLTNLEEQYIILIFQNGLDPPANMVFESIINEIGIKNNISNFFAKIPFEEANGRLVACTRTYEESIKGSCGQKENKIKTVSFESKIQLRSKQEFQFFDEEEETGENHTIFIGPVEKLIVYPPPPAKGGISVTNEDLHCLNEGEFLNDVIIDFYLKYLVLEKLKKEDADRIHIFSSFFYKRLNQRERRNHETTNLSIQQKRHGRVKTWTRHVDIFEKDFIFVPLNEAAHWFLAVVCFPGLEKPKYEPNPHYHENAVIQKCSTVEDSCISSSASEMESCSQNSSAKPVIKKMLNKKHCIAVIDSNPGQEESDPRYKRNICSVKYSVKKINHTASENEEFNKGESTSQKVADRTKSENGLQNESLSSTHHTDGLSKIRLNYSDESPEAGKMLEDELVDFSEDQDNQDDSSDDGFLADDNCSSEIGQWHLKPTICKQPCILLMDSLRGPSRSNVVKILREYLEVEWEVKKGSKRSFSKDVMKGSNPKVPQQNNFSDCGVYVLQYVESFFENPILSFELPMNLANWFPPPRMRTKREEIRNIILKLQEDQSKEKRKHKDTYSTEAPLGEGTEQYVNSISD
Format: functional.

Assay [12] deals with T7, Sentrin-specific protease 8 (Homo sapiens, UniProt Q96LD8).
T7 sequence (Q96LD8 whole entry): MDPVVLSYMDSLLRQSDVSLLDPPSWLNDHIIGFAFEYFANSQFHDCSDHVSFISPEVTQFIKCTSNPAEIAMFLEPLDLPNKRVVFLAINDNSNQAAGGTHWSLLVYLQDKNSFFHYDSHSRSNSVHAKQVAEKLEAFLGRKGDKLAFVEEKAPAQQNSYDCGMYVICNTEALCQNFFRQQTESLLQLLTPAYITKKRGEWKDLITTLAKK
Format: functional.

Mucolipin-3, sequence (Q8TDD5 whole entry): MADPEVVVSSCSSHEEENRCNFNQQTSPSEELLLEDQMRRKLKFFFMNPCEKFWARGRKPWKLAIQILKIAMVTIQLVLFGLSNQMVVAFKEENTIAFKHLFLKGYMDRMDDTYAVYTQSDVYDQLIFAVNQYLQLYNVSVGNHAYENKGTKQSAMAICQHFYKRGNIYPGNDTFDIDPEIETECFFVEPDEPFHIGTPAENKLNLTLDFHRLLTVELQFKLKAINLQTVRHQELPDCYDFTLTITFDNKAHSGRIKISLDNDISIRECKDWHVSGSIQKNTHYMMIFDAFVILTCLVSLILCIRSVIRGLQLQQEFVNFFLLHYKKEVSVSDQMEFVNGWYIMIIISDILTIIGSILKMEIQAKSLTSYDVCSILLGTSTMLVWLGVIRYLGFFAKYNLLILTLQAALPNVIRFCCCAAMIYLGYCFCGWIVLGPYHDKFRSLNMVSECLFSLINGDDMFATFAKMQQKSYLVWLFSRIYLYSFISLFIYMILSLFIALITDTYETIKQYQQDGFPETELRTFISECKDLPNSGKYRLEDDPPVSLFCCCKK

Usually EC50 stands for the midpoint of the concentration-response curve. The term IC50 denotes the concentration that gives 50% inhibition. On to `Cc1ccc(NC(=O)Nc2nnc(-c3ccncc3)s2)cc1`, for which the EC50 with HEK293 [1] is 3.38 µM (active); at Ion channel NompC it was > 29.9 µM (inactive); on Mucolipin-3, > 29.9 µM (not active). In addition, the IC50 in the assay with HEK293 [2] is > 20 µM (inactive); in the assay with HEK293 [3], 5.87 µM (active).

For orientation: CC50 means the concentration at which the toxic effect on the cells reaches its halfway point. For the molecule `C#CCSc1nnc(-c2cccc3ccccc23)o1`, the figures for the CC50 in assay [4] and in assay [5] were 20.6 µM (active) and 15.7 µM (active), respectively. Moreover, the half-maximal inhibitory concentration (IC50) is 9.32 µM (active) in the assay “cells” and 10.2 µM (active) on Protein skinhead-1.

`COc1ccc(S(=O)(=O)Nc2ccncn2)cc1OC`: the half-inhibitory concentration (IC50) in [6] was > 100 µM (not active); in [7], > 100 µM (inactive).

Consider `O=c1[nH]c(/C=C/c2ccccc2Cl)nc2ccccc12`, for which the IC50 was > 56.8 µM (not active) in [8]; > 50 µM (inactive) in assay [9]; 1.61 µM (active) at Caspase-3; 1.64 µM (active) in [10]; 1.4 µM (active) in assay [11]; > 100 µM (inactive) in assay [12].

Consider `COC(=O)C(/C=N/OCc1ccc([N+](=O)[O-])cc1)NC(=O)c1cccc(Cl)c1` (centres undefined), for which the EC50 is > 29.9 µM (inactive) at Ion channel NompC and > 29.9 µM (not active) on Mucolipin-3.
